Measurements: ChEMBL document CHEMBL1909046, “DrugMatrix in vitro pharmacology data”

Key:
[1] = target: 5-hydroxytryptamine receptor 6 (Homo sapiens, UniProt P50406); assay type: cell membranes, HeLa, Membrane; settings: for Ki: read-out: Ki; on all read-outs here: in other assays of this panel Not Active means under 50% inhibition at 10 µM
Vasopressin V1a receptor = Vasopressin V1a receptor (Homo sapiens, UniProt P37288); assay type: cell membranes, Membrane; settings: hek293; further: in other assays of this panel Not Active means under 50% inhibition at 10 µM
Sequence of Vasopressin V1a receptor (P37288 whole entry): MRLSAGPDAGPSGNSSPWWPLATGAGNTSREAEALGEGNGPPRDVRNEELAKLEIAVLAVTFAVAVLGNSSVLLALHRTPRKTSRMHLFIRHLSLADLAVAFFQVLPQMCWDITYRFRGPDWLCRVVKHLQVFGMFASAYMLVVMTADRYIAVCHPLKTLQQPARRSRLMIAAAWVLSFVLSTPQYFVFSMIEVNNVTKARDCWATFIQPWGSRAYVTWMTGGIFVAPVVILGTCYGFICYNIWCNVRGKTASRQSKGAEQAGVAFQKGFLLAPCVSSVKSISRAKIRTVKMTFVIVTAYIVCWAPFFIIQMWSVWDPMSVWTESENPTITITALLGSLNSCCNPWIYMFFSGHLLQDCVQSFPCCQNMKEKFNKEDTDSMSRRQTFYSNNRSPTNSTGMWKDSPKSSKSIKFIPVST

[2] = target: T1, C-C chemokine receptor type 4 (Homo sapiens, UniProt P51679); assay type: cell membranes, Chem-1, Membrane; settings: chem-1; further: in other assays of this panel Not Active means under 50% inhibition at 10 µM
T1 sequence (P51679 whole entry): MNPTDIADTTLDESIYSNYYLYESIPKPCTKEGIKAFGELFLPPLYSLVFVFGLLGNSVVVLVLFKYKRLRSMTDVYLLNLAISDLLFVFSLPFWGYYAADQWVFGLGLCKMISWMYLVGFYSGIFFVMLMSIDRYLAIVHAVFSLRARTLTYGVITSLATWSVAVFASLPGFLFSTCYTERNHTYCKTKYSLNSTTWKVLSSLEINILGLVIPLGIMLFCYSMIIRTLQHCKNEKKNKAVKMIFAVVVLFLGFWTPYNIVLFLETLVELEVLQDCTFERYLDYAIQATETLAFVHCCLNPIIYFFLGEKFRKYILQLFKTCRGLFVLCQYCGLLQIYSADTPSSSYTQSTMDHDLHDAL

Nitric oxide synthase 1 = Nitric oxide synthase 1 (Rattus norvegicus, UniProt P29476); assay type: tissue-based, Cerebellum; further: in other assays of this panel Not Active means under 50% inhibition at 10 µM
Sequence of Nitric oxide synthase 1 (P29476 whole entry): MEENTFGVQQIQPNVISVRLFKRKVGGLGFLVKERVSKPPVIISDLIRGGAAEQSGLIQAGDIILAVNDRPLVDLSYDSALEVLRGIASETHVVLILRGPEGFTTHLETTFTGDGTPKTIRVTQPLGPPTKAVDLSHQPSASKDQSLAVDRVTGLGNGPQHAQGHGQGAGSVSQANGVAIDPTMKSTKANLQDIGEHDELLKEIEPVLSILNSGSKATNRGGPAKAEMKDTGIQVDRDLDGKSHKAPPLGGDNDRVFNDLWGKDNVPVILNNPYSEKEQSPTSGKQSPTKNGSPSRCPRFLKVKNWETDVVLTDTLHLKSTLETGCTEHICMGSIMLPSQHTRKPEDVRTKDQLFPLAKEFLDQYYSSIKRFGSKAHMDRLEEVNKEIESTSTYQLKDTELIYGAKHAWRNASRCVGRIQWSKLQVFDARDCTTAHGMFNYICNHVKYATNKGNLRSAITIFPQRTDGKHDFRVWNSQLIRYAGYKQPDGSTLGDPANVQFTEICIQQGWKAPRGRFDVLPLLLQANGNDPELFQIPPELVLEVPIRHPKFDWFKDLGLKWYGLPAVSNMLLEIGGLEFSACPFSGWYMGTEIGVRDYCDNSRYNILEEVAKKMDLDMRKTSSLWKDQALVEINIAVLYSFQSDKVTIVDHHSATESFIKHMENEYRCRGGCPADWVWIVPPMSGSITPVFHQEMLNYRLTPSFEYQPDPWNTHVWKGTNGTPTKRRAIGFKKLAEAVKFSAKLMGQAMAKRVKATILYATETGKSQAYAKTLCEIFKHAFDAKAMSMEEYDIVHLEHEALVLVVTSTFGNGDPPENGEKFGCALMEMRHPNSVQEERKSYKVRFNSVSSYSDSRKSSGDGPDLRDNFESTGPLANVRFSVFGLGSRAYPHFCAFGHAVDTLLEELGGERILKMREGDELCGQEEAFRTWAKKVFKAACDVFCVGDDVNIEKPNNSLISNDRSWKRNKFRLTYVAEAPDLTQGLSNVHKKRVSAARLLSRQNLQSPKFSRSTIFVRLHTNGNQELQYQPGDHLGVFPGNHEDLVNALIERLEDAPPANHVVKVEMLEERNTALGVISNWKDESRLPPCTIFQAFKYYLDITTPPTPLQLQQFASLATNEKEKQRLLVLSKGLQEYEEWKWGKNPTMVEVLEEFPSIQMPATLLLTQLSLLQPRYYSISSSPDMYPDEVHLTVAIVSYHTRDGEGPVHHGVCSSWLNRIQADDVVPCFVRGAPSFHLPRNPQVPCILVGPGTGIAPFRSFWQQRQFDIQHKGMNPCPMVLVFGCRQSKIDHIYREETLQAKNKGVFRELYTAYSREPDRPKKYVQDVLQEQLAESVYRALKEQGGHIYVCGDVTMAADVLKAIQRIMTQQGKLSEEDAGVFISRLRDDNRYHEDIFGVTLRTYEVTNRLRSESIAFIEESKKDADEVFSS

[3] = target: Matrix metalloproteinase-9 (Homo sapiens, UniProt P14780); assay type: cell-based
Sequence of Matrix metalloproteinase-9 (P14780 whole entry): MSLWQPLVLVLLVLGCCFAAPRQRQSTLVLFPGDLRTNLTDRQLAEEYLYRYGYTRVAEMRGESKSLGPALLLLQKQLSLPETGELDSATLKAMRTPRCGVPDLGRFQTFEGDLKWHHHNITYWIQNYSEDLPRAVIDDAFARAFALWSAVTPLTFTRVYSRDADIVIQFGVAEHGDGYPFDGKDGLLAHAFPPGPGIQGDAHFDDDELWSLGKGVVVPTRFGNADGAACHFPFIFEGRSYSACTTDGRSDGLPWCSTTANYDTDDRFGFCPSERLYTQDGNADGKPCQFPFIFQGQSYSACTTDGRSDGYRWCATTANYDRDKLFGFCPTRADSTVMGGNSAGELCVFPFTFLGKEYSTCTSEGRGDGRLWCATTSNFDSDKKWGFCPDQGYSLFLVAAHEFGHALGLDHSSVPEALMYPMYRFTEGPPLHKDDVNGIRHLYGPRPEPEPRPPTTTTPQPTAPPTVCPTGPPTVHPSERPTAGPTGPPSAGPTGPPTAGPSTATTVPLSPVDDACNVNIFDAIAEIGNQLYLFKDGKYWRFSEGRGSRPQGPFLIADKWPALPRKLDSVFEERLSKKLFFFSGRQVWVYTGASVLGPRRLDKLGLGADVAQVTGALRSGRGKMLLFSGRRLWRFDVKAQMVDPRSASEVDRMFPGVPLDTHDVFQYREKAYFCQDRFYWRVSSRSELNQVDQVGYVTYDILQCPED

[4] = target: Receptor tyrosine-protein kinase erbB-2 (Homo sapiens, UniProt P04626); assay type: cell-based; settings: insect cells
Sequence of Receptor tyrosine-protein kinase erbB-2 (P04626 whole entry): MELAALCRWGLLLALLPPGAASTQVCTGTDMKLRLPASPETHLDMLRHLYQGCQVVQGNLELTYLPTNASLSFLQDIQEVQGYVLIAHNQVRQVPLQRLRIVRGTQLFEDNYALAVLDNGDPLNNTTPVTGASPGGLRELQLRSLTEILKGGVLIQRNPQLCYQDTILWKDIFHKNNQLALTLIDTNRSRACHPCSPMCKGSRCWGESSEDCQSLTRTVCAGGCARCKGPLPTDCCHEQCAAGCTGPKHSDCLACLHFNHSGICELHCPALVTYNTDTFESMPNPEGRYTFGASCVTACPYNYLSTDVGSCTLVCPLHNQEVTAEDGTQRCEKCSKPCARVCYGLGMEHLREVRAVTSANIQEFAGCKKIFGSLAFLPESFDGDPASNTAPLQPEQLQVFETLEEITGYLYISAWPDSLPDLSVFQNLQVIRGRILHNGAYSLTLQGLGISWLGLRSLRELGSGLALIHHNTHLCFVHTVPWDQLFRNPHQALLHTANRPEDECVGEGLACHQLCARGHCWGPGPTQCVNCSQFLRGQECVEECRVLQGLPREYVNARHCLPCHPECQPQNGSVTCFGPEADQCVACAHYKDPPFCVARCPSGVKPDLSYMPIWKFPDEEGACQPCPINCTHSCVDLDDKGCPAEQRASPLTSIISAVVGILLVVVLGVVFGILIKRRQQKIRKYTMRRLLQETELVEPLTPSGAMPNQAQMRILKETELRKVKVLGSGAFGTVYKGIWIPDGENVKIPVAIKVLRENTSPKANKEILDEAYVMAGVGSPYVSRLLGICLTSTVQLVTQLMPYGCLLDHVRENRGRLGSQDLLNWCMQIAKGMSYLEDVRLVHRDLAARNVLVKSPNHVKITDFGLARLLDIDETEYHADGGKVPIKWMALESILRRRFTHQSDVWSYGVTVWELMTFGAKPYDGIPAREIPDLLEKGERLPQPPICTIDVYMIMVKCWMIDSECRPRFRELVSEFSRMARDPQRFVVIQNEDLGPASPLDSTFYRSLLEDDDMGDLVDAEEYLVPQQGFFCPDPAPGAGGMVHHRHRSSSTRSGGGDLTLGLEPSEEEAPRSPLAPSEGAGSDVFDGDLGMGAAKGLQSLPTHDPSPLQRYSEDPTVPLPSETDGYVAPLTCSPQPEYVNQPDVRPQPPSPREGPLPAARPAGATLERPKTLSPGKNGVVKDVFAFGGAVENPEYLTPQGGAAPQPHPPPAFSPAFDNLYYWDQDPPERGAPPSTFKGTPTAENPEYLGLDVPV

[5] = target: T2, Receptor-type tyrosine-protein phosphatase C (Homo sapiens, UniProt P08575); design: species or system Escherichia coli
T2 sequence (P08575 whole entry): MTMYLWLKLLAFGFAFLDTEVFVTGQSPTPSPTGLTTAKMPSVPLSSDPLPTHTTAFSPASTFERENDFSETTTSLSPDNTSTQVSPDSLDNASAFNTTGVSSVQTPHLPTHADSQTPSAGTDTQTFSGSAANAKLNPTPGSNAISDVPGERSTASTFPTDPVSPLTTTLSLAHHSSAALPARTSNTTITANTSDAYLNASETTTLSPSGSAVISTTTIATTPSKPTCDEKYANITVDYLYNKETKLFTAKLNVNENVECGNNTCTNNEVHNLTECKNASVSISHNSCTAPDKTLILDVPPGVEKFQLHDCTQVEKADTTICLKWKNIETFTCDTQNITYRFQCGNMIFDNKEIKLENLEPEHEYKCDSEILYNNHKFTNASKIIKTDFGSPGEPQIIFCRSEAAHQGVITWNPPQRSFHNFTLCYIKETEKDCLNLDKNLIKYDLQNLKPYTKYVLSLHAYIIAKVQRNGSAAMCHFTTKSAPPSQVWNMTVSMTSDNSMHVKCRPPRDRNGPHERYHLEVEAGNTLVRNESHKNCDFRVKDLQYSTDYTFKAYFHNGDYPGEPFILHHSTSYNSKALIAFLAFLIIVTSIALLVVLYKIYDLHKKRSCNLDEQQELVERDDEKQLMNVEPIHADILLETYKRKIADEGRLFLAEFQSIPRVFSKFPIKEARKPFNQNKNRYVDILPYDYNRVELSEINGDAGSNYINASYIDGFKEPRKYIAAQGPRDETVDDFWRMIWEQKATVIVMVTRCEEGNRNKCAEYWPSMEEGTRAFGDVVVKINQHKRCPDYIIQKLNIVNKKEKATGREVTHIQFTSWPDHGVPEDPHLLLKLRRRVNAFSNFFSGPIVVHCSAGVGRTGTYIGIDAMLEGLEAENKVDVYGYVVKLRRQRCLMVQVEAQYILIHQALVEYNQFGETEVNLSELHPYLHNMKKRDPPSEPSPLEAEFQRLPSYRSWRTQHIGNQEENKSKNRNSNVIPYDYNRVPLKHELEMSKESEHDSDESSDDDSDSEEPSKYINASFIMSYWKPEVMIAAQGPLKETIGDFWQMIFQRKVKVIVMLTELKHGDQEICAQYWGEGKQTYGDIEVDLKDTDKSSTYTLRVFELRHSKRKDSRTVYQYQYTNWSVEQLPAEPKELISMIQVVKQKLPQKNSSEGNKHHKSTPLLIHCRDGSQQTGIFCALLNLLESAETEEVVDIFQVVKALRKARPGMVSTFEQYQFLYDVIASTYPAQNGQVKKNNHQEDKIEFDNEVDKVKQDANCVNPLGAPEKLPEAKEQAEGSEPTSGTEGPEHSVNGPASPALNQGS

Adenosine receptor A2a = Adenosine receptor A2a (Homo sapiens, UniProt P29274); assay: DRUGMATRIX: Adenosine A2A radioligand binding (ligand: […]); assay type: cell membranes, HEK293, Membrane; settings: Not Active = under 50% inhibition at 10 µM
Sequence of Adenosine receptor A2a (P29274 whole entry): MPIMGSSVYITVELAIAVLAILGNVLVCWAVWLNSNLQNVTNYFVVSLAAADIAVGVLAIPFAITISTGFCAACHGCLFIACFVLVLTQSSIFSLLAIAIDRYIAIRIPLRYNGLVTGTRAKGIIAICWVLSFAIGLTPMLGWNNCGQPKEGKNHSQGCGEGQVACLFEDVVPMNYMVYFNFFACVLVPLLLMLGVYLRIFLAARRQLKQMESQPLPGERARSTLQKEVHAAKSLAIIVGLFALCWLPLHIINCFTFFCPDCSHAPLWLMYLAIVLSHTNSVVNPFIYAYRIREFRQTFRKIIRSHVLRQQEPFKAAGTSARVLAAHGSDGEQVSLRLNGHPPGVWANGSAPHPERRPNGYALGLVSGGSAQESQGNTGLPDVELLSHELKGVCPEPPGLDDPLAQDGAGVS

Sequence of 5-hydroxytryptamine receptor 6 (P50406 whole entry): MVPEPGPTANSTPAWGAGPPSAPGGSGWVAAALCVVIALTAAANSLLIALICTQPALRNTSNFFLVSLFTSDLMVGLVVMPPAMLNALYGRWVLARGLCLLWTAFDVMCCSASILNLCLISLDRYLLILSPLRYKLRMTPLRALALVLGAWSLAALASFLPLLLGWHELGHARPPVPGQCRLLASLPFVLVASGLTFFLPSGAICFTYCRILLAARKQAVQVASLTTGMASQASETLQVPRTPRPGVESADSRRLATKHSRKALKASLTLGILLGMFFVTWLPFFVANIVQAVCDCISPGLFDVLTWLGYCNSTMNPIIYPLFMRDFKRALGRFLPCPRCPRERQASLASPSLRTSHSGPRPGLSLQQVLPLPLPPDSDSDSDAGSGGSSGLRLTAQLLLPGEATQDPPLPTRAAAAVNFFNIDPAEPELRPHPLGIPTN

| SMILES | IC50 ([1]; hela) | IC50 (Vasopressin V1a receptor) | IC50 [2] | IC50 (Nitric oxide synthase 1) | IC50 [3] | IC50 [4] | IC50 [5] | IC50 (Adenosine receptor A2a; hek293) | IC50 (Adenosine receptor A2a; read-out: IC50) [µM] | Ki (Adenosine receptor A2a; read-out: Ki) [µM] | IC50 ([1]; read-out: IC50) [µM] | Ki [1] [µM] | Ki [3] |
| --- | --- | --- | --- | --- | --- | --- | --- | --- | --- | --- | --- | --- | --- |
| CCN1C[C@]2(COC)[C@H](O)C[C@H](OC)[C@@]34[C@@H]5C[C@@]6(O)[C@H](OC(=O)c7ccccc7)[C@@H]5[C@@](OC(C)=O)([C@@H]([C@H](OC)[C@H]23)[C@@H]14)[C@@H](O)[C@@H]6OC [ACONITINE] | Not Active | Not Active | Not Active | Not Active | Not Active | Not Active | Not Active | Not Active | – | – | – | – | – |
| OC[C@H]1OC2C3[C@@H](CO)OC(O[C@H]4[C@H](O)[C@@H](O)[C@@H](O[C@H]5[C@H](O)[C@@H](O)[C@@H](O[C@H]6[C@H](O)[C@@H](O)[C@@H](O[C@H]7[C@H](O)[C@@H](O)[C@@H](O[C@H]8[C@H](O)[C@@H](O)[C@@H](O[C@H]9[C@H](O)[C@@H](O)C(OC1[C@H](O)[C@H]2O)O[C@@H]9CO)O[C@@H]8CO)O[C@@H]7CO)O[C@@H]6CO)O[C@@H]5CO)O[C@@H]4CO)[C@H](O)[C@H]3O | Not Active | Not Active | Not Active | Not Active | Not Active | Not Active | Not Active | Not Active | – | – | – | – | – |
| CN(CCOc1ccc(C[C@H](Nc2ccccc2C(=O)c2ccccc2)C(=O)O)cc1)c1ccccn1 | Not Active | Not Active | Not Active | Not Active | Not Active | Not Active | Not Active | – | 37.3 | 20.9 | – | – | – |
| CCN1CCN(c2cc3c(cc2F)c(=O)c(C(=O)O)cn3C2CC2)CC1 [ENROFLOXACIN] | Not Active | Not Active | Not Active | Not Active | Not Active | Not Active | Not Active | Not Active | – | – | – | – | – |
| NS(=O)(=O)c1cc(C(=O)O)c(NCc2ccco2)cc1Cl [FUROSEMIDE] | Not Active | Not Active | Not Active | Not Active | Not Active | Not Active | Not Active | Not Active | – | – | – | – | – |
| NC(=O)NC(=O)Cc1ccccc1 [PHENACEMIDE] | Not Active | Not Active | Not Active | Not Active | Not Active | Not Active | Not Active | Not Active | – | – | – | – | – |
| Cc1cc(C(C)(C)C)c(O)c(C)c1CC1=NCCN1 [OXYMETAZOLINE] | – | Not Active | Not Active | Not Active | Not Active | Not Active | Not Active | Not Active | – | – | 1.67 | 0.775 | – |
| CC(CN1c2ccccc2Sc2ccccc21)N(C)C (stereo unspecified) [PROMETHAZINE] | – | Not Active | Not Active | Not Active | Not Active | Not Active | Not Active | Not Active | – | – | 2.43 | 1.13 | – |
| NC(N)=Nc1nc(CSCCC(N)=NS(N)(=O)=O)cs1 [FAMOTIDINE] | Not Active | Not Active | Not Active | Not Active | Not Active | Not Active | Not Active | Not Active | – | – | – | – | – |
| C[C@]12CC[C@@H](O)C[C@@H]1CC[C@@H]1[C@@H]2CC[C@]2(C)C(=O)CC[C@@H]12 [ANDROSTERONE] | Not Active | Not Active | Not Active | Not Active | – | Not Active | Not Active | Not Active | – | – | – | – | Not Active |
| ClC1=C(Cl)[C@]2(Cl)[C@@H]3[C@@H]4C[C@@H]([C@H]5O[C@@H]45)[C@@H]3[C@@]1(Cl)C2(Cl)Cl [DIELDRIN] | Not Active | Not Active | Not Active | Not Active | Not Active | Not Active | Not Active | Not Active | – | – | – | – | – |
